The values that follow come from patent publication US20230203081A1, “LINCOSAMIDE ANTIBIOTICS AND USES THEREOF” (President and Fellows of Harvard College, priority 2020, published 2023).

Structures are written as SMILES. In brackets after ≈: the same amount, converted by molar mass. Read-outs that look alike come from different tables or passages of the source.

Holding throughout (format): cell-based
One test relates to P. aeruginosa ATCC 27853. The experiment in a line: MIC (broth microdilution or agar dilution, CLSI). The settings on record: Pseudomonas aeruginosa, ATCC27853; P. aeruginosa ATCC 27853; read-out: MIC. As for the experimental part:
(§1) Minimum inhibitory concentrations (MICs) were determined by broth microdilution method or agar dilution method following the Clinical and Laboratory Standards Institute guidelines. Standard bacterial strains were obtained from American Type Culture Collection (ATCC). Other bacterial strains were obtained from hospitals and commercial sources, so noted in Table 11. Before the start of the MIC experiment, standard and test compound stock solutions were prepared in dimethyl sulfoxide (DMSO, Aldrich D2650) at a stock concentration of 5,120 μg/mL. The compound concentration range typically employed for each experiment was 128-0.06 μg/mL (2.5% final DMSO concentration). Clindamycin was used as a comparator in all experiments and each experiment was performed in triplicate. Specialized procedures were employed for streptococcal and anaerobic strains. All other bacterial strains were sub-cultured on blood agar plates (tryptic soy agar with 5% sheep blood, Hardy Diagnostics) and incubated overnight at 35° C. Organisms were suspended in cation-adjusted Mueller-Hinton broth (CaMHB, BD 212322) and optical density was adjusted to 0.5 McFarland standard. Suspensions were further diluted to obtain a final inoculum of 5×10^5 CFU/mL for broth microdilution experiments.

The test system of the next test is S. aureus cErmA. The experiment in a line: MIC (broth microdilution or agar dilution, CLSI). The settings on record: Staphylococcus aureus; S. aureus cErmA; read-out: MIC. The procedure:
as §1

Another test has as its system E. faecium Clinical VRE. The experiment in a line: MIC (broth microdilution or agar dilution, CLSI). The settings on record: Enterococcus faecium; E. faecium Clinical VRE; read-out: MIC. As for the experimental part: as §1
A further test has as its system E. coli ΔTolC. Description: microbe, parasite or virus in culture. The settings on record: Escherichia coli. As for the experimental part: (§2) Minimum inhibitory concentrations (MICs) were determined by broth microdilution method or agar dilution method following the Clinical and Laboratory Standards Institute guidelines. Standard bacterial strains were obtained from American Type Culture Collection (ATCC). Other bacterial strains were obtained from hospitals and commercial sources, so noted in Table 11. […] Specialized procedures were employed for streptococcal and anaerobic strains. All other bacterial strains were sub-cultured on blood agar plates (tryptic soy agar with 5% sheep blood, Hardy Diagnostics) and incubated overnight at 35° C. […] Suspensions were further diluted to obtain a final inoculum of 5×10^5 CFU/mL for broth microdilution experiments.

In the next test the test system is S. pyogenes ATCC 19615. Description: MIC (broth microdilution or agar dilution, CLSI). Conditions: Streptococcus pyogenes, read-out: MIC. As for the experimental part:
as §2

The test system of the next test is E. faecalis ATCC 29212. Description: MIC (broth microdilution or agar dilution, CLSI). The settings on record: Enterococcus faecalis, read-out: MIC. The procedure: as §2
Another test relates to E. coli LptD. Description: MIC (broth microdilution or agar dilution, CLSI). Conditions: Escherichia coli, read-out: MIC. The procedure:
as §2

Another test deals with S. aureus ATCC 29213. The experiment in a line: MIC (broth microdilution or agar dilution, CLSI). The settings on record: Staphylococcus aureus, read-out: MIC. The procedure: as §2
The test system of another test is S. pneumoniae ATCC 49619. The experiment in a line: MIC (broth microdilution or agar dilution, CLSI). Conditions: Streptococcus pneumoniae, read-out: MIC. As for the experimental part:
as §2

The next test concerns K. oxytoca Clinical. The experiment in a line: MIC (broth microdilution or agar dilution, CLSI). The settings on record: Klebsiella oxytoca, read-out: MIC. As for the experimental part:
as §2

Another test concerns E. coli ATCC 25922. Description: MIC (broth microdilution or agar dilution, CLSI). The settings on record: Escherichia coli, ATCC25922, read-out: MIC. The procedure:
as §2

The subject of a further test is A. baumannii ATCC 19606. The experiment in a line: MIC (broth microdilution or agar dilution, CLSI). The settings on record: Acinetobacter baumannii, ATCC19606; A. baumannii ATCC 19606; read-out: MIC. As for the experimental part:
as §2

For test [1], the system named is broad panel of different clinical isolates. The experiment in a line: microbe, parasite or virus in culture. As for the experimental part:
as §2

The next test has as its system S. aureus MMX 3035 cErmA. Description: MIC (broth microdilution or agar dilution, CLSI). Conditions: Staphylococcus aureus, MMX3035CERMA; S. aureus HAV#031, MMX 3035; cErmA; read-out: MIC. As for the experimental part:
as §2

The mark [2] stands for this setting: ATCC19615, S. pyogenes ATCC 19615.
[3] abbreviates: ATCC29212, E. faecalis ATCC 29212.
[4] abbreviates: ATCC29213, S. aureus ATCC 29213.
The mark [5] stands for this setting: ATCC49619, S. pneumoniae ATCC 49619.

For the molecule `CC[C@@H]1CCO[C@@H]2[C@H](CN[C@@H]2C(=O)N[C@H]([C@H](C)Cl)[C@H]2OC(SC)[C@H](O)[C@H](O)C2O)C1` (some centres unmarked) [FSA-10-10-012], the MIC was > 128 µg/mL in the test on P. aeruginosa ATCC 27853; 8 µg/mL (≈ 17.1 µM) in the test with S. aureus cErmA; 8 µg/mL (≈ 17.1 µM) with E. faecium Clinical VRE; 0.5 µg/mL (≈ 1.07 µM) in the test on E. coli ΔTolC (E. coli ΔTolC); 0.125 µg/mL (≈ 0.268 µM) in the test with S. pyogenes ATCC 19615 (setting [2]); 0.25 µg/mL (≈ 0.535 µM) with E. faecalis ATCC 29212 (setting [3]). The MIC in the test with E. coli LptD (E. coli LptD) turned out to be 2 µg/mL (≈ 4.28 µM); in the test with S. aureus ATCC 29213 (setting [4]) it was 0.125 µg/mL (≈ 0.268 µM); in the test on S. pneumoniae ATCC 49619 (setting [5]) it was 0.125 µg/mL (≈ 0.268 µM); in the test on K. oxytoca Clinical (K. oxytoca Clinical), 16 µg/mL (≈ 34.3 µM); in the test on E. coli ATCC 25922 (E. coli ATCC 25922), 16 µg/mL (≈ 34.3 µM); in the test with A. baumannii ATCC 19606 it was 32 µg/mL (≈ 68.5 µM).
Regarding `C=C[C@@H]1CCO[C@@H]2[C@H](CN[C@@H]2C(=O)N[C@H]([C@H](C)Cl)[C@H]2OC(SC)[C@H](O)[C@H](O)C2O)C1` (some centres unmarked) [FSA-10-10-013], the MIC in the test with P. aeruginosa ATCC 27853 is > 128 µg/mL; with S. aureus cErmA it was 64 µg/mL (≈ 138 µM); in the test on E. faecium Clinical VRE it was 32 µg/mL (≈ 68.8 µM); with E. coli ΔTolC (E. coli ΔTolC) it was 2 µg/mL (≈ 4.3 µM); with S. pyogenes ATCC 19615 (setting [2]), 0.25 µg/mL (≈ 0.538 µM); with E. faecalis ATCC 29212 (setting [3]) it was 2 µg/mL (≈ 4.3 µM). The MIC was 4 µg/mL (≈ 8.6 µM) with E. coli LptD (E. coli LptD); 0.25 µg/mL (≈ 0.538 µM) in the test with S. aureus ATCC 29213 (setting [4]); 0.25 µg/mL (≈ 0.538 µM) with S. pneumoniae ATCC 49619 (setting [5]); 128 µg/mL (≈ 275 µM) with K. oxytoca Clinical (K. oxytoca Clinical); 64 µg/mL (≈ 138 µM) in the test with E. coli ATCC 25922 (E. coli ATCC 25922); > 128 µg/mL in the test on A. baumannii ATCC 19606.
Turning to `CSC1O[C@H]([C@H](NC(=O)[C@H]2NC[C@@H]3C[C@H](C)CCO[C@H]32)[C@H](C)Cl)C(O)[C@@H](O)[C@H]1O` (some centres unmarked) [FSA-10-10-014], the MIC in the test with P. aeruginosa ATCC 27853 was > 128 µg/mL; in the test on S. aureus cErmA, 64 µg/mL (≈ 141 µM); with E. faecium Clinical VRE, 64 µg/mL (≈ 141 µM); in the test with E. coli ΔTolC (E. coli ΔTolC), 8 µg/mL (≈ 17.7 µM); in the test with S. pyogenes ATCC 19615 (setting [2]), 1 µg/mL (≈ 2.21 µM); with E. faecalis ATCC 29212 (setting [3]), 16 µg/mL (≈ 35.3 µM). Also, the MIC is 8 µg/mL (≈ 17.7 µM) in the test on E. coli LptD (E. coli LptD); 1 µg/mL (≈ 2.21 µM) in the test with S. aureus ATCC 29213 (setting [4]); 2 µg/mL (≈ 4.42 µM) in the test with S. pneumoniae ATCC 49619 (setting [5]); 128 µg/mL (≈ 283 µM) with K. oxytoca Clinical (K. oxytoca Clinical); 64 µg/mL (≈ 141 µM) with E. coli ATCC 25922 (E. coli ATCC 25922); > 128 µg/mL in the test on A. baumannii ATCC 19606.
As to `COCCC[C@@H]1CCO[C@@H]2[C@H](CN[C@@H]2C(=O)N[C@H]([C@H](C)Cl)[C@H]2OC(SC)[C@H](O)[C@H](O)C2O)C1` (some centres unmarked) [FSA-10-10-022], the MIC was > 128 µg/mL in the test on P. aeruginosa ATCC 27853; 16 µg/mL (≈ 31.3 µM) in the test with S. aureus cErmA; 8 µg/mL (≈ 15.7 µM) in the test on E. faecium Clinical VRE; 0.5 µg/mL (≈ 0.978 µM) with E. coli ΔTolC (E. coli ΔTolC); 0.25 µg/mL (≈ 0.489 µM) in the test with S. pyogenes ATCC 19615 (setting [2]); 2 µg/mL (≈ 3.91 µM) with E. faecalis ATCC 29212 (setting [3]). Further, the MIC with E. coli LptD (E. coli LptD) is 4 µg/mL (≈ 7.83 µM); with S. aureus ATCC 29213 (setting [4]), 0.125 µg/mL (≈ 0.245 µM); in the test with S. pneumoniae ATCC 49619 (setting [5]) it was 0.25 µg/mL (≈ 0.489 µM); in the test on K. oxytoca Clinical (K. oxytoca Clinical) it was 32 µg/mL (≈ 62.6 µM); with E. coli ATCC 25922 (E. coli ATCC 25922), 32 µg/mL (≈ 62.6 µM); in the test with A. baumannii ATCC 19606, > 128 µg/mL.
Consider `CS(=O)(=O)c1ccc([C@@H](O)[C@@H](CO)NC(=O)C(Cl)Cl)cc1` [Thiamphenicol], for which the MIC in the test on E. coli ΔTolC (E. coli HAV#038, ΔTolC) was 16 µg/mL (≈ 44.9 µM); in [1] (Enterococcus faecalis, VRE, E. faecalis HAV#251, Clinical VRE) it was 8 µg/mL (≈ 22.5 µM); in [1] (Klebsiella pneumoniae, K. pneumoniae HAV#041, Clinical, KPC) it was > 64 µg/mL; in the test on S. aureus MMX 3035 cErmA it was 32 µg/mL (≈ 89.8 µM); with S. pyogenes ATCC 19615 (ATCC19615, S. pyogenes HAV#004, ATCC 19615), 4 µg/mL (≈ 11.2 µM); in the test with E. faecalis ATCC 29212 (ATCC29212, E. faecalis HAV#005, ATCC 29212), 16 µg/mL (≈ 44.9 µM). Moreover, the MIC came to 32 µg/mL (≈ 89.8 µM) with E. coli LptD (E. coli HAV#040, LptD); 32 µg/mL (≈ 89.8 µM) with S. aureus ATCC 29213 (ATCC29213, S. aureus HAV#001, ATCC 29213, MP-549); 2 µg/mL (≈ 5.61 µM) in the test on S. pneumoniae ATCC 49619 (ATCC49619, S. pneumoniae HAV#003, ATCC 49619); 64 µg/mL (≈ 180 µM) in the test with K. oxytoca Clinical (K. oxytoca HAV#450, Clinical); 64 µg/mL (≈ 180 µM) in the test on E. coli ATCC 25922 (E. coli HAV#006, ATCC 25922).
